As a reminder, the IC50 is the concentration needed to halve the response being measured. Low readings indicate greater potency, high ones weaker potency.

SMILES strings stand for the structures. ≈ marks a conversion by molar mass, not a printed value.

Experimental findings from patent publication US8608919B2, “Impedimetric sensor and applications thereof” (Consejo Superior de Investigaciones Científicas, priority 2007, dated 2013) are described below.

Common to all, as to format: binding, rabbits of the New Zealand variety
For experiment [1], the system named is antiserums produced for sulphonamide-type antibiotics. In words: Direct ELISA format with HRP enzymatic tracers of competition haptens (preliminary studies). An excerpt:
Biological molecular receptors (antibodies) were designed and produced to analyse antibiotics from the family of sulfamides. The preparation of the biological receptors was approached by means of the design of immunization haptens using molecular modelling strategies. As a consequence of these studies, the synthesis of 2 haptens or antigens was proposed. One of them (hapten 1) kept the greater part of the structure of the sulfamides, while the second (hapten 2) was only a fragment which conserved the part common to most of the compounds of this family of antibiotics. The two haptens were combined to the HCH (horseshoe crab hemocyanin) protein and to the BSA (bovine serum albumin) protein by using methods described in the literature. The covalent bonding of the haptens or antigens and the quantification of the number of the remainder of antigens bonded to the protein was carried out by means of a mass spectrometer. Following this, rabbits of the New Zealand variety were immunised with these antigens by applying a six-month long immunisation protocol, during which the progress of the immune response was controlled by means of extracting small blood samples.
With the aim of evaluating the avidity of the antiserums produced by the sulphonamide-type antibiotics, it was necessary to establish a competitive-type immunochemical assay. […]

Experiment [2] concerns specific sulfamide antiserum (#155). In words: Impedimetric immunosensor of the invention, competitive immunoassay calibrated with sulfapyridine. Conditions: Sensor; [Ab] 1/2000; [AT] 0.8 μg/ml (2d-BSA); from four-parameter fit of calibration curve. Here is the method: Before proceeding to the functionalization, the electrodes were cleaned in a solution of 70% absolute ethanol and 30% Milli-Q water. Afterwards, the devices were submerged in a solution of 2.5% NaOH and Milli-Q water for 10 minutes, followed by a rinsing in 100 mL of Milli-Q water, in order to neutralize the action of the NaOH. Finally, the electrodes were cleaned in ethanol and dried in nitrogen current.
The electrodes were introduced into a GPTS [(3-glycidoxipropil) trimethoxisilane] solution with 2.5% ethanol anhydride for three hours, at ambient temperature and with orbital agitation. After this time had passed, the devices were washed in ethanol and dried in nitrogen current. […]
Biological molecular receptors (antibodies) were designed and produced to analyse antibiotics from the family of sulfamides. […] The covalent bonding of the haptens or antigens and the quantification of the number of the remainder of antigens bonded to the protein was carried out by means of a mass spectrometer. […]
Sulfapyridine pattern solutions prepared in PBST (0.64 nM-50000 nM, in PBST) were added to the electrodes (150 μL/electrode), followed by a solution with the specific sulfamide antiserum (#155) obtained (1/2000 in PBST, 150 μL/electrode). […] The reaction was measured in a low conductivity solution. […]

In experiment [3] the test system is specific sulfamide antiserum. In words: ELISA immunoassay, calibration with sulfapyridine. Conditions: [Ab] 1/8000, [AT] 0.625 μg/ml, from four-parameter fit of calibration curve. Background: ELISA stands for enzyme-linked immunosorbent assay.

Regarding `Nc1ccc(S(=O)(=O)Nc2cnccn2)cc1` [sulfapyrazine], the IC50 in experiment [1] was ~9 ng/mL (≈ 0.036 µM). In the case of `Nc1ccc(S(=O)(=O)Nc2ccccn2)cc1` [sulfapyridine], the IC50 in experiment [2] turned out to be 14 nM; in experiment [3], 9.29 nM.
